Measured values taken from patent EP0305843A2, “Antiviral agent” (BAYER AG, priority 1987, dated 1989).

How the values were obtained:
Visna-Virus = test: Visna virus test in cell culture (inhibition of virus-induced cytopathic effect, method of Narayan et al.); assay type: cell-based; details: Visna-virus-infected cell cultures treated with the compound at non-cytotoxic concentrations
Excerpt: In Zellkulturen, die mit Visna-Virus infiziert sind, treten 5 bis 10 Tage nach der Infektion ausgeprägte virusinduzierte, zytopathische Effekte auf. Durch Behandlung der infizierten Zellkulturen mit 9-(2,3-Anhydro-β-D-lyxofuranosyl)adenin konnte das Auftreten dieser zytopathischen Effekte verhindert werden. Der Visna-Virus-Test wurde nach der Methode von O. Narayan et al., Journal of Infectious Dieseases 135, 5, 1977, 800-806 durchgeführt. Dazu wurde 9-(2,3-Anhydro-β-D-lyxofuranosyl)adenin - in Produktionsmedium gelöst - in nicht zytotoxischen Konzentrationen in 96er Microtiterplatten verdünnt. Anschließend wurden Fibroblastenzellen vom Schaf (5 x 10⁴ Zellen pro Napf) - in Produktionsmedium suspendiert - zu jedem Näpfchen zugeführt. Jedes Näpfchen erhielt dann 50 µl einer Visna-Viruslösung mit einer Titer von ca. 2,5 x 10⁴ TCID₅₀ (TCID = tissue culture infectious dose). Diese Virusdosis entspricht einer MOI (Multiplizität der Infektion) von ca. 0,05.
Unter diesen Infektionsbedingungen resultierte zwischen Tag 5 und Tag 10 in einer Infektionskontrolle ohne Substanz ein virusinduzierter, zytopathischer Effekt. Die infizierten und behandelten Zellen und die Kontrollzellen wurden 7 Tage bei 37°C, 5 % CO₂ inkubiert. […]

T-Zellen = test: Further studies: influence on the function of T cells; assay type: cell-based; details: no method or concentration given

With `Nc1ncnc2c1ncn2[C@@H]1O[C@H](CO)[C@@H]2O[C@@H]21` [9-(2,3-Anhydro-β-D-lyxofuranosyl)adenin] the “Auftreten der virusinduzierten zytopathischen Effekte” value (Visna-Virus) was “verhindert” and the “Funktion von T-Zellen” value (T-Zellen) was “nicht beeinflußt”.
